Assay results from patent US11319551B2, “Methods and compositions for PPO herbicide tolerance in plants” (Monsanto Technology LLC, priority 2015, dated 2022).

What was measured:
E. coli HemG = E. coli HemG (Escherichia coli, UniProt P0ACB4); assay: PPO enzyme assay, bacterial extract
Experimental: (§2) This assay used recombinant HemY PPO proteins with plant plastid extract and PPO substrate to identify protoporphyrinogen oxidases that had activity in the presence of a PPO herbicide.
(§3) Recombinant PPO enzymes were expressed in E. coli HemG knockout cell line and extracted for the enzyme assay. Bacterial cells from an overnight culture were used to inoculate 20 ml of fresh media. These cultures were allowed to grow for approximately 48 hrs at 20° C. to a dense culture. Bacterial cells were collected by centrifugation and the cell pellets stored at −80° C. until enzyme assays were performed. Frozen bacterial pellets were resuspended in extraction buffer (50 mM Tris-HCl, pH 7.6, 1 mM EDTA & 1 mM MgCl2) and sonicated (Sonics VibraCell™) for 30 seconds in an ice bath with a one-minute rest period between cycles. For E. coli transformed with a construct encoding E. coli HemG (SEQ ID NO: 76) the broken cells were centrifuged at 200 g for 2 minutes at 4° C. and the supernatant solution was used for PPO enzyme assays after dilution with extraction buffer. […]
(§4) A PPO enzyme assay was conducted to measure PPO activity using the plant plastid extract and bacterial extract preparations with the PPO substrate. PPO activity was measured generally as described by Grossmann (2010).

soybean PPO = assay: PPO enzyme assay, plant plastid extract; format: biochemical, Glycine max; settings: 3 μM protogen, 30° C., read-out: S-3100 IC50
Experimental: (§1) Plant plastid extract was produced used etioplasts and chloroplasts that were prepared from etiolated cotyledons (soybean, Glycine max), etiolated leaves/coleoptiles (corn, Zea mays) and unfolded apical leaves (A. tuberculatus) generally by the procedure described by Grossmann (2010). Soybean (A3555) and corn (LH244) seeds were placed between two sheets of moist germination paper (Anchor Paper Company, Saint Paul, Minn.) in a beaker of water in continuous darkness for eight to ten days. A. tuberculatus plants were grown for 30 days in the greenhouse. Tissue was collected, placed between moist sheets of paper towels and ground to fine powder with a mortar and pestle in liquid nitrogen. Homogenization buffer (50 mM Tris-HCl, pH 7.4, 500 mM sucrose, 1 mM EDTA, 1 mM magnesium chloride, and 2 g/liter bovine serum albumin) was added to the frozen powder at 4:1 (ml homogenization buffer to g fresh weight tissue), mixed vigorously and filtered through four layers of pre-moistened Miracloth. The filtrate was centrifuged at 9299 g for five minutes. The pellet was resuspended in homogenization buffer and centrifuged at 150 g for two minutes. The supernatant solution was centrifuged at 4000 g for fifteen minutes. All centrifugation steps were carried out a 4° C. […]

R2N30 = assay: PPO enzyme assay, bacterial extract
Experimental: as §2, §3, §4

R2N40 = assay: PPO enzyme assay, bacterial extract
Experimental: as §2, §3, §4

corn PPO = assay: PPO enzyme assay, plant plastid extract; format: biochemical, Zea mays; settings: 3 μM protogen, 30° C., read-out: S-3100 IC50
Experimental: as §1

[1] = read-out: S-3100 IC50, bacterial extract, 3 μM protogen, 37° C.

E. coli HemG, sequence (P0ACB4 whole entry): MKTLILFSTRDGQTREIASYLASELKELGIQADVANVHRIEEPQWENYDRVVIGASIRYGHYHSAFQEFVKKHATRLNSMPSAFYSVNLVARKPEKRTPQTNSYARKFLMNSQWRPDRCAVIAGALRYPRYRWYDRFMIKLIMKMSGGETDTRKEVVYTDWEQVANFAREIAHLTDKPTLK

In the case of CCOC(=O)COc1ncccc1Oc1cc(-n2c(=O)cc(C(F)(F)F)n(C)c2=O)c(F)cc1Cl [S-3100], the IC50 (E. coli HemG) is reported as greater than 100 µM, the IC50 (soybean PPO) is reported as 4 nM and the “less sensitive to the herbicide than the plant PPO enzymes” value (R2N30; R2N30 versus plant PPO enzymes) is reported as 10 fold. The IC50 (R2N30; [1]) was 20 nM, the “less sensitive to the herbicide than the plant PPO enzymes” value (R2N40; R2N40 versus plant PPO enzymes) was 10 fold and the IC50 (R2N40; [1]) was 40 nM. It also gave an IC50 (corn PPO) of 3 nM.
